Where “and” joins values, the source holds several entries; their conditions need not be identical. Equal values may be shown once. Toxic doses and inconclusive results are not listed. Rule as the data show it: active = T/C of 150% or more; inactive = T/C below 125%.
Tested on: L1210 leukemia ip in BDF1 mice, survival T/C
Assay: NCI In Vivo Anticancer Drug Screen. Data for tumor model L1210 Leukemia (intraperitoneal) in B6D2F1 (BDF1) mice
Settings: endpoint: mean survival time, higher = longer survival
In short: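 Each compound was tested against a transplantable tumor grown in mice. The endpoint was survival, with treated animals benchmarked against vehicle controls as a simple ratio.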

[1] = dose: 100.0 mg/kg/injection, schedule: Q01DX009 (ip), vehicle: saline
[2] = dose: 100.0 mg/kg/injection, schedule: Q04DX003 (ip), vehicle: Klucel (hydroxypropylcellulose) (HPC)
[3] = dose: 200.0 mg/kg/injection, schedule: Q04DX003 (ip), vehicle: Klucel (hydroxypropylcellulose) (HPC)
[4] = dose: 50.0 mg/kg/injection, schedule: Q04DX003 (ip), vehicle: Klucel (hydroxypropylcellulose) (HPC)
[5] = dose: 400.0 mg/kg/injection, schedule: Q04DX003 (ip), vehicle: Klucel (hydroxypropylcellulose) (HPC)
[6] = dose: 100.0 mg/kg/injection, schedule: Q01DX009 (ip), vehicle: saline with Tween-80

Measured: T/C

Nc1nc(N)c2nc3c(nc2n1)CN(c1ccc(C(=O)O)cc1)C3=O
inactive: [1] 104 % of control | dose: 200.0 mg/kg/injection, schedule: Q01DX009 (ip), vehicle: saline 89 % of control

NNC(=O)c1ccc(S(N)(=O)=O)cc1
inactive: dose: 12.5 mg/kg/injection, schedule: Q01DX009 (ip), vehicle: water 93 % of control | dose: 25.0 mg/kg/injection, schedule: Q01DX009 (ip), vehicle: water 96 % of control | dose: 59.0 mg/kg/injection, schedule: Q01DX009 (ip), vehicle: other 93 % of control and 103 % of control | dose: 89.0 mg/kg/injection, schedule: Q01DX009 (ip), vehicle: other 97 % of control and 92 % of control | dose: 133.0 mg/kg/injection, schedule: Q01DX009 (ip), vehicle: other 101 % of control and 87 % of control | dose: 200.0 mg/kg/injection, schedule: Q01DX009 (ip), vehicle: other 99 % of control and 90 % of control | dose: 300.0 mg/kg/injection, schedule: Q01DX009 (ip), vehicle: other 94 % of control and 99 % of control
active: dose: 50.0 mg/kg/injection, schedule: Q01DX009 (ip), vehicle: water 343 % of control | dose: 100.0 mg/kg/injection, schedule: Q01DX009 (ip), vehicle: water 403 % of control | dose: 200.0 mg/kg/injection, schedule: Q01DX009 (ip), vehicle: water 459 % of control

O=C(NCCCl)NC1CCc2ccccc21 (stereo not drawn)
inactive: dose: 20.0 mg/kg/injection, schedule: Q04DX003 (ip), vehicle: Klucel (hydroxypropylcellulose) (HPC) 92 % of control | dose: 40.0 mg/kg/injection, schedule: Q04DX003 (ip), vehicle: Klucel (hydroxypropylcellulose) (HPC) 92 % of control | dose: 80.0 mg/kg/injection, schedule: Q04DX003 (ip), vehicle: Klucel (hydroxypropylcellulose) (HPC) 91 % of control | [2] 95 % of control | [3] 106 % of control

Nc1cc(N)c(O)c(N)c1
inactive: dose: 0.5 mg/kg/injection, schedule: Q04DX003 (ip), vehicle: saline 103 % of control | dose: 1.0 mg/kg/injection, schedule: Q04DX003 (ip), vehicle: saline 105 % of control | dose: 1.25 mg/kg/injection, schedule: Q01DX009 (ip), vehicle: saline 95 % of control | dose: 2.0 mg/kg/injection, schedule: Q04DX003 (ip), vehicle: saline 111 % of control | dose: 2.5 mg/kg/injection, schedule: Q01DX009 (ip), vehicle: saline 90 % of control | dose: 5.0 mg/kg/injection, schedule: Q01DX009 (ip), vehicle: saline 97 % of control

CCN(CC)CCCC(C)Nc1cc(N)nc2nc(-c3ccccc3)c(-c3ccccc3)nc12 (stereo not drawn)
inactive: dose: 9.5 mg/kg/injection, schedule: Q01DX001 (ip), vehicle: other 89 % of control | dose: 38.0 mg/kg/injection, schedule: Q01DX001 (ip), vehicle: other 87 % of control | dose: 75.0 mg/kg/injection, schedule: Q01DX001 (ip), vehicle: other 96 % of control

CC(C)OC(=O)NC1C=CC=CC=C1
inactive: [4] 98 % of control | [2] 93 % of control | [3] 104 % of control | [5] 106 % of control

C=CNC(=O)Oc1ccccc1
inactive: dose: 100.0 mg/kg/injection, schedule: Q01DX001 (ip), vehicle: other 96 % of control | dose: 200.0 mg/kg/injection, schedule: Q01DX001 (ip), vehicle: other 100 % of control | dose: 400.0 mg/kg/injection, schedule: Q01DX001 (ip), vehicle: other 91 % of control

COC(=O)c1cc(C)c(Br)c(N)c1
inactive: dose: 100.0 mg/kg/injection, schedule: Q01DX009 (ip), vehicle: Klucel (hydroxypropylcellulose) (HPC) 101 % of control | [2] 100 % of control | dose: 200.0 mg/kg/injection, schedule: Q01DX009 (ip), vehicle: Klucel (hydroxypropylcellulose) (HPC) 101 % of control | [3] 92 % of control | dose: 400.0 mg/kg/injection, schedule: Q01DX009 (ip), vehicle: Klucel (hydroxypropylcellulose) (HPC) 98 % of control | [5] 95 % of control

C[C@]12CC[C@@H]3c4ccc(OCC(=O)O)cc4CC[C@H]3[C@@H]1CCC2=O
inactive: dose: 75.0 mg/kg/injection, schedule: Q01DX009 (ip), vehicle: Klucel (hydroxypropylcellulose) (HPC) 97 % of control | dose: 150.0 mg/kg/injection, schedule: Q01DX009 (ip), vehicle: Klucel (hydroxypropylcellulose) (HPC) 90 % of control

Cc1cc(Br)c(N(C=O)N=O)c(Br)c1
inactive: dose: 75.0 mg/kg/injection, schedule: Q01DX001 (ip), vehicle: saline 101 % of control | dose: 150.0 mg/kg/injection, schedule: Q01DX001 (ip), vehicle: saline 104 % of control

COc1ccc(Cl)cc1NC(=O)/C=C/c1ccccc1
inactive: dose: 100.0 mg/kg/injection, schedule: Q01DX001 (ip), vehicle: saline with Tween-80 95 % of control | [6] 89 % of control | dose: 100.0 mg/kg/injection, schedule: Q04DX002 (ip), vehicle: saline with Tween-80 98 % of control and 90 % of control | dose: 200.0 mg/kg/injection, schedule: Q01DX001 (ip), vehicle: saline with Tween-80 92 % of control | dose: 200.0 mg/kg/injection, schedule: Q01DX009 (ip), vehicle: saline with Tween-80 95 % of control and 89 % of control | dose: 200.0 mg/kg/injection, schedule: Q04DX002 (ip), vehicle: saline with Tween-80 96 % of control and 91 % of control | dose: 400.0 mg/kg/injection, schedule: Q01DX009 (ip), vehicle: saline with Tween-80 92 % of control | dose: 400.0 mg/kg/injection, schedule: Q04DX002 (ip), vehicle: saline with Tween-80 94 % of control and 86 % of control

O=CNc1ncnn1C(=S)NCc1ccccc1
inactive: dose: 50.0 mg/kg/injection, schedule: Q01DX009 (ip), vehicle: saline 105 % of control | [1] 111 % of control

CO/N=C(/C)C1(O)Cc2c(O)c3c(c(O)c2C(OC2CC(N)C(O)C(C)O2)C1)C(=O)c1c(OC)cccc1C3=O (stereo not drawn)
inactive: dose: 1.0 mg/kg/injection, schedule: Q01DX009 (ip), vehicle: water 109 % of control | dose: 2.0 mg/kg/injection, schedule: Q01DX009 (ip), vehicle: water 109 % of control | dose: 2.0 mg/kg/injection, schedule: Q04DX003 (ip), vehicle: water 101 % of control | dose: 3.12 mg/kg/injection, schedule: Q01DX009 (ip), vehicle: saline with Tween-80 111 % of control | dose: 4.0 mg/kg/injection, schedule: Q01DX009 (ip), vehicle: water 108 % of control | dose: 4.0 mg/kg/injection, schedule: Q04DX003 (ip), vehicle: water 100 % of control | dose: 6.25 mg/kg/injection, schedule: Q01DX009 (ip), vehicle: saline with Tween-80 106 % of control | dose: 8.0 mg/kg/injection, schedule: Q01DX009 (ip), vehicle: water 106 % of control | dose: 8.0 mg/kg/injection, schedule: Q04DX003 (ip), vehicle: water 101 % of control | dose: 12.5 mg/kg/injection, schedule: Q01DX009 (ip), vehicle: saline with Tween-80 106 % of control | dose: 12.5 mg/kg/injection, schedule: Q04DX003 (ip), vehicle: saline 95 % of control | dose: 125.0 micrograms/kg/injection, schedule: Q04DX003 (ip), vehicle: water 100 % of control | dose: 250.0 micrograms/kg/injection, schedule: Q04DX003 (ip), vehicle: water 101 % of control | dose: 500.0 micrograms/kg/injection, schedule: Q04DX003 (ip), vehicle: water 97 % of control | dose: 1000.0 micrograms/kg/injection, schedule: Q04DX003 (ip), vehicle: water 105 % of control | dose: 2000.0 micrograms/kg/injection, schedule: Q04DX003 (ip), vehicle: water 102 % of control

Cc1c2ccncc2cc2c3ccccc3n(C)c12
inactive: dose: 37.5 mg/kg/injection, schedule: Q04DX003 (ip), vehicle: Klucel (hydroxypropylcellulose) (HPC) 98 % of control | dose: 75.0 mg/kg/injection, schedule: Q04DX003 (ip), vehicle: Klucel (hydroxypropylcellulose) (HPC) 103 % of control | dose: 150.0 mg/kg/injection, schedule: Q04DX003 (ip), vehicle: Klucel (hydroxypropylcellulose) (HPC) 102 % of control | dose: 300.0 mg/kg/injection, schedule: Q04DX003 (ip), vehicle: Klucel (hydroxypropylcellulose) (HPC) 115 % of control

O=C(CCl)Nc1ccc([As](=O)(O)O)cc1
inactive: dose: 25.0 mg/kg/injection, schedule: Q01DX009 (ip), vehicle: Klucel (hydroxypropylcellulose) (HPC) 98 % of control | dose: 50.0 mg/kg/injection, schedule: Q01DX009 (ip), vehicle: Klucel (hydroxypropylcellulose) (HPC) 91 % of control | [4] 94 % of control | [2] 97 % of control

CN(C)/C=N\c1c(C#N)c(CC#N)nn1-c1ccccc1
inactive: dose: 25.0 mg/kg/injection, schedule: Q01DX009 (ip), vehicle: saline with Tween-80 98 % of control | dose: 25.0 mg/kg/injection, schedule: Q04DX003 (ip), vehicle: saline with Tween-80 103 % of control | dose: 50.0 mg/kg/injection, schedule: Q01DX009 (ip), vehicle: saline with Tween-80 100 % of control | dose: 50.0 mg/kg/injection, schedule: Q04DX003 (ip), vehicle: saline with Tween-80 93 % of control | [6] 88 % of control | dose: 100.0 mg/kg/injection, schedule: Q04DX003 (ip), vehicle: saline with Tween-80 98 % of control and 99 % of control

— PubChem BioAssay AID248 (DTP/NCI, 2004)
